Experimental data as given in patent publication US20040063694A1, “Compound useful for the treatment of CNS disorders” (priority 2002, published 2004).

Key:
[1] = solubility in aqueous systems; type: physicochemical
Source text: It is known that rate of dissolution of drug particles can be increased by increasing the surface area of the solid, i.e., decreasing the particle size. Consequently, methods of making finely divided drugs have been studied and efforts have been made to control the size and size range of drug particles in pharmaceutical compositions. For example, dry milling techniques have been used to reduce particle size and thereby influence drug absorption. However, in conventional dry milling, as discussed by Lachman et al., The Theory and Practice of Industrial Pharmacy, Chapter 2, “Milling”, p. 45 (1986), the limit of fineness is reached in the region of about 100 µm (=100,000 nm), where the milled material begins to cake onto the surfaces of the milling chamber. Lachman et al. note that wet grinding is beneficial in further reducing particle size, but that flocculation restricts the lower particle size limit to approximately 10 µm (=10,000 nm). Commercial airjet milling techniques have provided particles ranging in average particle size from as low as about 1 µm to 50 µm (=1,000 nm to 50,000 nm). It is […], however, that the 2-ethyl homolog of this invention is advantageously milled according to the above processes to make the compound having an average particle size of between about 1-200 micrometers. The preferred average particle size is less than 200 micrometers.

[2] = tested on: 5HT-2 receptors; assay: activity at 5HT-2 receptors
Source text: (§1) The compound of the invention in all its forms is useful in the treatment of various central nervous system (CNS) disorders or conditions. The compound has been tested using standard behavioral models predictive of antipsychotic activity. These tests include the tests conducted in published papers mentioned above including the rat conditioned avoidance test, the rat catalepsy test and other tests including binding assays to central nervous system receptors including D-1 and D-2 dopamine receptors.

[3] = tested on: 5HT-1 receptors; assay: activity at 5HT-1 receptors
Source text: as §1

[4] = twenty-six week dog study, total cholesterol; conditions: female beagle dogs
Method: The dogs are studied over a course of 8 mgs/kg/day per drug for a twenty-six week period and assessed at varying time points for LDL, HDL and total cholesterol as well as having their estrous cycle monitored and measured. […] The preferred normal range in human patients of cholesterol level (total) is described in the Merck Manual as 120-220 mg/Dl.

[5] = twenty-six week dog study, blood glucose levels; conditions: female beagle dogs
Method: In addition to total cholesterol values other parameters were measured including blood glucose levels at pretest, week 13 and week 26 of the study.

[6] = 10 mg/kg, Chakabarti et al. J. Med. Chem. 1980; cited from earlier work
[7] = 16 mg/kg, Chakabarti et al. J. Med. Chem. 1980; cited from earlier work
[8] = beagle dogs; as stated in the '382 patent (alleged); cited from earlier work
[9] = previous dog study on a smaller group of animals, cholesterol; conditions: for rise in cholesterol: male or female beagle dogs, 4 mgs/kg/day

SMILES | solubility in aqueous systems relative to olanzapine [1] | activity at the 5HT-2 receptors [2] | activity at the 5HT-1 receptors [3] | total average cholesterol values ([4]; 8 mgs/kg/day, twenty six weeks, effect of normal estrous cycle variations discounted) [mg/dL] | average total cholesterol value, spike at a single point early on in the study ([4]; oral 8 mgs/kg/day) [mgs/dL] | mean total cholesterol values after the full duration of the study ([4]; oral 8 mgs/kg/day, twenty-six weeks, n=15 per arm) [mgs/dL] | blood glucose level, week 13 ([5]; oral 8 mgs/kg/day, week 13) [mg/dL] | blood glucose level, week 26 ([5]; oral 8 mgs/kg/day, week 26) [mg/dL] | blood glucose level, pretest ([5]; pretest (before dosing)) [mg/dL] | rat conditioned avoidance test data [6] | rat catalepsy test [7] | cholesterol raising effect [8] | rise in cholesterol relative to placebo ([9]; male beagle dogs, 8 mgs/kg/day) | rise in cholesterol [9]
CCc1cc2c(s1)Nc1ccccc1N=C2N1CCN(C)CC1 [Example 222, 2-ethyl-10-(4-methyl-1-piperazinyl)-4H-thieno[2,3-b][1,5]benzodiazepine] | slightly less soluble than olanzapine | shows activity | shows activity | ≤ 240 | 237.2 | 186.8 | 87.9 | 77.6 | 82.5 | 2 (31-50% block) | 1 | some cholesterol raising effect | no rise in cholesterol | no rise in cholesterol
Cc1cc2c(s1)Nc1ccccc1N=C2N1CCN(C)CC1 [olanzapine, 2-methyl-10-(4-methyl-1-piperazinyl)-4H-thieno[2,3-b][1,5]benzodiazepine, reference compound] |  |  |  |  |  |  |  |  |  |  |  |  |  | no rise in cholesterol
